Experimental data published in ChEMBL document CHEMBL1201862, “PubChem BioAssay data set” (2004).
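Each compound was tested at five concentrations against cells in 96-well plates for 48 hours. At the GI50, growth is halved.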 Activity calls are given as the source filed them. No stated cut-off is given here; in the data, active = GI50 up to about 1.1 µM and inactive = higher. Starred links: 1 amine or outer side, 2 acyl side, 3 side chain; linkers in the order of their positions; H or OH if unused. Non-standard residues stand in square brackets, D forms with d. Residues, ends and D or L forms follow the SMILES beside them. ξ: configuration not given here. X24 = O=C(C(CC(O)CO)O[*:1])[*:2]; Ile(3ξ) = CCC(C)[C@H](N)C(=O)O; NMeV = CN[C@H](C(=O)O)C(C)C; NMeA = CN[C@@H](C)C(=O)O; βAla = NCCC(=O)O

Experiments:
Test in all cases: NCI anticancer screen, dose series, 48 h
[1] = tested on: IGROV-1
[2] = tested on: SR
[3] = tested on: NCI-H460
[4] = tested on: LOX IMVI
[5] = tested on: COLO 205
[6] = tested on: TK-10
[7] = tested on: SK-OV-3
[8] = tested on: SNB-75
[9] = tested on: SF-268
[10] = tested on: SF-295
[11] = tested on: 786-0
[12] = tested on: HT-29
[13] = tested on: SF-539
[14] = tested on: MOLT-4
[15] = tested on: HOP-62
[16] = tested on: CAKI-1

Measured: GI50

C=C1c2ccccc2N(S(=O)(=O)c2ccc(C)cc2)C12CCCCC2
inactive: [1] > 100 µM | [2] 13.1 µM | [3] 86.7 µM | [4] 36.6 µM | [5] 43.5 µM | [6] > 100 µM | [7] > 100 µM | [8] 50.9 µM | [9] 63 µM | [10] 74.5 µM | [11] > 100 µM | [12] 52.4 µM | [13] > 100 µM | [14] 30.4 µM | [15] > 100 µM

Cc1cc(Cl)ccc1NC(=O)C1C(=O)C(=O)N(c2ccc(Cl)cc2C)C1=O (configuration not stated)
inactive: [1] > 100 µM | [4] > 100 µM | [5] > 100 µM | [6] > 100 µM | [7] > 100 µM | [8] > 100 µM | [9] 53 µM | [16] > 100 µM | [10] 95.5 µM | [11] > 100 µM | [12] 96.2 µM | [13] > 100 µM | [14] 24.7 µM | [15] > 100 µM

CCC(C)[C@@H]1NC(=O)[C@@H]2CCCN2C(=O)C(CC(O)CO)OC(=O)CCNC(=O)[C@H](C)N(C)C(=O)[C@H](C(C)C)N(C)C1=O (some centres not stated) (cyclo([Ile(3ξ)][NMeV][NMeA][βAla][X24]P))
inactive: [1] > 100 µM | [2] > 100 µM | [3] > 100 µM | [4] 84.5 µM | [5] > 100 µM | [6] > 100 µM | [7] > 100 µM | [8] > 100 µM | [9] > 100 µM | [16] > 100 µM | [10] 91 µM | [11] > 100 µM | [12] > 100 µM | [13] > 100 µM | [14] 43.1 µM | [15] > 100 µM

COc1cc(C)c(C(=O)/C=C/c2cc(OC)c(O)c(OC)c2)cc1O
inactive: [1] 28.9 µM | [3] 25.1 µM | [4] 19.5 µM | [5] 32.7 µM | [6] 45.6 µM | [7] 32.1 µM | [8] 20.7 µM | [9] 23.9 µM | [16] 26.4 µM | [10] 39 µM | [11] 19.2 µM | [12] 30.6 µM | [13] 29.6 µM | [14] > 100 µM | [15] 22.7 µM

N#C/C(=N\c1ccccc1N(C(=O)c1ccccc1)C(=O)c1ccccc1)c1ccccc1
inactive: [1] 6.67 µM | [2] 2.4 µM | [3] 32.8 µM | [4] 27.2 µM | [5] > 42 µM | [6] > 100 µM | [7] > 100 µM | [8] > 100 µM | [9] > 100 µM | [16] 47.6 µM | [10] 8.89 µM | [11] > 91.6 µM | [12] 15.3 µM | [13] > 100 µM | [14] 3.82 µM | [15] > 30.7 µM

Cc1cc(Cl)cc2c1NC(=O)C2(O)C(C)C(=O)c1ccc(Cl)cc1 (configuration not stated)
inactive: [1] > 81.3 µM | [2] > 66.2 µM | [3] > 100 µM | [4] > 100 µM | [5] 97.1 µM | [6] > 100 µM | [7] > 100 µM | [8] > 59.3 µM | [9] > 71.9 µM | [16] > 92.5 µM | [10] > 92.5 µM | [11] 85.7 µM | [12] > 83.2 µM | [13] > 62.1 µM | [14] 28.4 µM | [15] > 100 µM

O=C(O)c1c2c(cc3c(=O)cc(-c4ccccc4)oc13)CCCC2
inactive: [1] > 100 µM | [3] > 100 µM | [4] > 100 µM | [5] > 100 µM | [6] > 100 µM | [7] > 100 µM | [8] 6.59 µM | [9] > 100 µM | [10] > 100 µM | [11] > 100 µM | [12] > 100 µM | [13] > 100 µM | [14] > 100 µM | [15] > 100 µM

COc1cc2c3c(c1OC)-c1ccccc1C(C(O)c1ccccc1)C3N(C)CC2 (configuration not stated)
inactive: [1] 38.8 µM | [2] 18 µM | [3] 27.3 µM | [4] 32.1 µM | [5] 15.8 µM | [6] 33.9 µM | [7] 37.3 µM | [8] 40 µM | [9] 31.7 µM | [10] 44.5 µM | [11] 30.7 µM | [12] 24.7 µM | [13] 21.4 µM | [14] 24.3 µM | [15] 24.3 µM

O=C(/C=C\c1cccc2ccccc12)c1cccs1
inactive: [1] 10.3 µM | [3] 14 µM | [5] 15.7 µM | [6] 19 µM | [7] 15.5 µM | [8] 23.6 µM | [9] 11 µM | [16] 6.31 µM | [10] 15.6 µM | [11] 10.7 µM | [12] 5.21 µM | [13] 16.9 µM | [14] 5.06 µM | [15] 17.7 µM

COc1cc(C2C(C(=O)O)=C(COC(C)=O)Oc3cc4c(cc32)OCO4)cc(OC)c1OC(C)=O (configuration not stated)
inactive: [1] > 100 µM | [3] > 100 µM | [4] > 100 µM | [5] > 100 µM | [6] > 100 µM | [7] > 100 µM | [8] > 100 µM | [16] > 100 µM | [10] > 100 µM | [11] > 100 µM | [12] > 100 µM | [14] > 100 µM | [15] > 100 µM

CC(=O)O[C@H]1CC[C@@]2(C)C(=CC[C@@H]3C2CC[C@]2(C)Nc4c(cnn4-c4ccccc4)CC32)C1 (some centres not stated)
inactive: [1] 20.6 µM | [3] 4.97 µM | [6] 56.5 µM | [7] 27.8 µM | [8] 4.07 µM | [16] 15.3 µM | [10] 2.69 µM | [11] 4.73 µM | [12] 4.82 µM | [13] 2.51 µM | [14] 2.07 µM | [15] 12.4 µM

N#CC(C#N)=Cc1ccc(C(O)P(=O)(O)O)cc1 (configuration not stated)
inactive: [1] > 100 µM | [3] > 100 µM | [4] > 100 µM | [5] > 100 µM | [6] > 100 µM | [7] > 100 µM | [9] > 100 µM | [16] > 100 µM | [10] > 100 µM | [11] > 100 µM | [12] > 100 µM | [13] > 100 µM | [14] > 100 µM | [15] > 100 µM

CCCCCCCCOCC(O)COC(C)C (configuration not stated)
inactive: [1] > 100 µM | [2] 17 µM | [3] 42.6 µM | [4] 25.8 µM | [5] 40 µM | [6] > 100 µM | [7] > 100 µM | [9] 39.1 µM | [16] 43.1 µM | [10] 58.7 µM | [11] 45.7 µM | [12] 50.7 µM | [14] 17 µM | [15] 91.8 µM

CCCCCCCC(=O)OCC(COC(=O)C(C)(C)C)OC(=O)Cc1ccccc1 (configuration not stated)
inactive: [1] > 100 µM | [3] > 100 µM | [4] > 100 µM | [5] > 100 µM | [6] > 100 µM | [7] > 100 µM | [9] > 100 µM | [16] > 100 µM | [10] > 100 µM | [11] > 100 µM | [14] > 100 µM | [15] > 100 µM

O=C(O)COc1ccc(O)c2c1C(=O)CCCC2=O
inactive: [1] > 100 µM | [3] > 100 µM | [4] > 100 µM | [5] > 100 µM | [6] > 100 µM | [7] > 100 µM | [9] > 100 µM | [16] > 100 µM | [10] > 100 µM | [11] > 100 µM | [12] > 100 µM | [13] > 100 µM | [14] > 100 µM | [15] > 100 µM

CCOc1ccc2c(c1)[n+]([O-])c(-c1ccccc1Cl)c(N)[n+]2[O-]
inactive: [1] > 100 µM | [2] 94 µM | [3] > 100 µM | [5] > 100 µM | [7] > 100 µM | [8] 80 µM | [9] > 100 µM | [16] > 100 µM | [10] > 100 µM | [11] > 100 µM | [12] > 100 µM | [13] > 100 µM | [14] 74 µM | [15] > 100 µM

C=CCOC1CC(n2cnc3c(N)ncnc32)OC1CO (configuration not stated)
inactive: [1] > 100 µM | [2] > 100 µM | [3] > 100 µM | [5] > 100 µM | [6] > 100 µM | [8] 51.1 µM | [9] > 100 µM | [16] > 100 µM | [10] > 100 µM | [11] > 100 µM | [12] > 100 µM | [13] > 100 µM | [14] > 100 µM | [15] > 100 µM

O=C1NC2C=CN(Cc3ccccc3)C=C2C(=O)N2CCCC12 (configuration not stated)
inactive: [1] > 100 µM | [2] > 100 µM | [3] > 100 µM | [5] > 100 µM | [6] > 100 µM | [7] > 100 µM | [8] > 100 µM | [9] > 100 µM | [16] > 100 µM | [10] > 100 µM | [11] > 100 µM | [12] > 100 µM | [13] > 100 µM | [14] > 100 µM | [15] > 100 µM

COc1c2c(c3c(c1C1OC(C)[C@@H](C)O1)CC(C)(C)O3)C(=O)c1ccccc1C2=O (some centres not stated)
inactive: [1] > 100 µM | [2] 22.5 µM | [3] 37.6 µM | [4] 15 µM | [5] 35.1 µM | [6] > 100 µM | [7] 13.9 µM | [8] 46.5 µM | [9] 54.2 µM | [16] 40.2 µM | [10] 65.2 µM | [11] 72.9 µM | [12] 31.6 µM | [13] > 100 µM | [15] > 100 µM
